# From article PMC11870035, “Discovery of Substituted 5-(2-Hydroxybenzoyl)-2-Pyridone Analogues as Inhibitors of the Human Caf1/CNOT7 Ribonuclease” (Molecules, 2024)
# System: Caf1/CNOT7
# Test: not given
# Parameters: method as in PMID 24170810
# Conditions: cited from earlier work
SMILES,activity in gel-based assay,selectivity
"COc1cc(Cl)c(C)cc1-n1cc(C(=O)c2cc(Br)ccc2O)cc(C#N)c1=O [Compound 1, 5-(5-bromo-2-hydroxybenzoyl)-1-(4-chloro-2-methoxy-5-methylphenyl)-2-oxo-1,2-dihydropyridine-3-carbonitrile]",confirmed,selective to Caf1/CNOT7

# Molecular target: T1, human nuclease enzyme Caf1/CNOT7 (Homo sapiens, UniProt Q9UIV1)
# Test: not given
# Parameters: method as in PMID 24170810
# Conditions: n = 3; read-out: originally reported IC50 versus Caf1/CNOT7; cited from earlier work
# T1 sequence (Q9UIV1 whole entry): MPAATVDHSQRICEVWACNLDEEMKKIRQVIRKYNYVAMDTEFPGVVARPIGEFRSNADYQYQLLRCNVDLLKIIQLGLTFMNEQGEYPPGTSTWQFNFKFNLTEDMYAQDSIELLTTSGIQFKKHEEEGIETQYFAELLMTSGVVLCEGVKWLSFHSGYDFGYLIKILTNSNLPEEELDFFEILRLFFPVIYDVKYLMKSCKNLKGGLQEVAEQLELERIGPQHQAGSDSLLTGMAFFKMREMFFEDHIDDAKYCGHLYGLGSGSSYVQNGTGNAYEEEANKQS
row,SMILES,IC50 [µM]
1,COc1cc(Cl)c(C)cc1-n1cc(C(=O)c2cc(Br)ccc2O)cc(C#N)c1=O,14.6 ± 3.1

# Molecular target: T1, human nuclease enzyme Caf1/CNOT7
# Test: fluorescence-based nuclease activity assay
# Assay type: biochemical
# Conditions: mean ± standard error; 0.4 µM Caf1/CNOT7, 1 µM Flc-RNA substrate, 30 °C, 60 min; read-out: IC50 versus Caf1/CNOT7
# Method: Purity of the compounds was verified by LC-MS. The inhibitory activity of the compounds was assessed using a fluorescence-based activity assay described before. Briefly, purified Caf1/CNOT7 was pre-incubated in the presence of compound or vehicle only (DMSO) before addition of a Fluorescein-labelled RNA oligonucleotide substrate. The composition of the final reaction mixture (10 µL) was: 0.4 µM Caf1/CNOT7, 1 µM Flc-RNA substrate, 20 mM Tris–HCl pH 7.9, 50 mM NaCl, 2 mM MgCl2, 10% glycerol, 1 mM β-mercaptoethanol and 5% DMSO. After incubation at 30 °C for 60 min, 10 µL probe mix (5 µM TAMRA-DNA probe, 1% SDS and 20 mM Tris–HCl pH 8.0, 0.5 mM EDTA) was added. Fluorescence intensity was measured using a BioTek Synergy HT plate reader (Agilent, Cheshire, UK) using the filters 485 ± 20 nm (excitation) and 528 ± 20 nm (emission). Raw data were analysed in Microsoft Excel and non-linear regression was carried out using GraphPad Prism 6. Statistical analysis (one-way ANOVA with post-hoc Dunnett’s test) was also carried out using GraphPad Prism.
row,IC50 [µM],SMILES
1,31.8 ± 1.8,Cc1cccc(-n2cc(C(=O)c3cc(Br)ccc3O)cc(C#N)c2=O)c1 [Compound 15]
2,42.1 ± 1.4,N#Cc1cc(C(=O)c2cc(Br)ccc2O)cn(-c2cccc(C(F)(F)F)c2)c1=O [Compound 10]
3,44.5 ± 3.6,Cc1ccccc1-n1cc(C(=O)c2cc(Br)ccc2O)cc(C#N)c1=O [Compound 16]
4,57.5 ± 4.7,Cc1ccc(-n2cc(C(=O)c3cc(Br)ccc3O)cc(C#N)c2=O)cc1 [Compound 14]
5,19.2 ± 1.1,N#Cc1cc(C(=O)c2cc(Br)ccc2O)cn(-c2cc(Cl)cc(Cl)c2)c1=O [Compound 17]
6,47 ± 2.7,N#Cc1cc(C(=O)c2cc(Br)ccc2O)cn(-c2ccc(F)c(Cl)c2)c1=O [Compound 13]
7,24.1 ± 3.3,"COc1cc(Cl)c(C)cc1-n1cc(C(=O)c2cc(Br)ccc2O)cc(C#N)c1=O [Compound 1, 5-(5-bromo-2-hydroxybenzoyl)-1-(4-chloro-2-methoxy-5-methylphenyl)-2-oxo-1,2-dihydropyridine-3-carbonitrile]"
8,39.3 ± 1.6,N#Cc1cc(C(=O)c2cc(Br)ccc2O)cn(-c2ccccc2Oc2ccccc2)c1=O [Compound 4]
9,65.6 ± 3.3,N#Cc1cc(C(=O)c2cc(Br)ccc2O)cn(-c2ccccc2Cl)c1=O [Compound 3]
10,80.9 ± 9.2,COc1ccccc1-n1cc(C(=O)c2cc(Br)ccc2O)cc(C#N)c1=O [Compound 6]
11,32.2 ± 1.6,N#Cc1cc(C(=O)c2cc(Br)ccc2O)cn(-c2ccc(Cl)cc2)c1=O [Compound 8]
12,108 ± 4,N#Cc1cc(C(=O)c2cc(Br)ccc2O)cn(-c2ccccc2)c1=O [Compound 12]
13,33.2 ± 0.5,CCOC(=O)c1ccc(-n2cc(C(=O)c3cc(Br)ccc3O)cc(C#N)c2=O)cc1 [Compound 9]
14,81.1 ± 5,COc1ccc(-n2cc(C(=O)c3cc(Br)ccc3O)cc(C#N)c2=O)cc1 [Compound 5]
15,33.6 ± 1.1,COc1cc(Cl)c(C)cc1-n1cc(C(=O)c2cc(F)ccc2O)cc(C#N)c1=O [Compound 11]
16,39 ± 2.6,CCc1ccc(-n2cc(C(=O)c3cc(Br)ccc3O)cc(C#N)c2=O)cc1 [Compound 7]

# Same assay, conditions: ratio of IC50 values versus compound 1
row,fold lower potency compared to 1,SMILES
1,4–5 fold,N#Cc1cc(C(=O)c2cc(Br)ccc2O)cn(-c2ccccc2)c1=O [Compound 12]
2,< 2 fold,COc1cc(Cl)c(C)cc1-n1cc(C(=O)c2cc(F)ccc2O)cc(C#N)c1=O [Compound 11]
